# From US6737383B1, “Herbicidal oxadiazolidines” (priority 1999, dated 2004)
# Key:
# morningglory = assay: Test B pre/postemergence morningglory; type: in vivo, Ipomoea hederacea
# Outline: (§1)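 Herbicidal effect was estimated by eye on a ten-point control scale after plants spent twelve to sixteen days in a greenhouse following soil or foliar treatment. Foliar sprays targeted plants at one to four leaves; all doses were formulated in a non-phytotoxic solvent with surfactant.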
# rape = assay: Test B pre/postemergence rape; type: in vivo, Brassica napus
# Outline: as §1
# smallflower flatsedge = assay: Test B flood test smallflower flatsedge; type: in vivo, Cyperus difformis; settings: for Plant response rating, S. Flatsedge (0 to 10 scale, 0 is no effect, 10 is complete control) / S. Flatsedge plant response rating (0 to 10 scale, 0 is no effect, 10 is complete control): visual evaluation after twelve to sixteen days; for S. Flatsedge plant response rating (0 to 10 scale, 0 is no effect, 10 is complete control): under heading Pre-emergence
# Outline: (§2)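 Plants were grown to the 2-leaf stage before treatment with test chemical, then held in a greenhouse for twelve to sixteen days. Injury was visually rated against untreated controls on a 0–10 scale, where 0 is no effect and 10 is complete control.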
# bamyardgrass = assay: Test B flood test barnyardgrass; type: in vivo, Echinochloa crus-galli; settings: for Plant response rating, Barnyardgrass (0 to 10 scale, 0 is no effect, 10 is complete control) / Barnyardgrass plant response rating (0 to 10 scale, 0 is no effect, 10 is complete control): visual evaluation after twelve to sixteen days; for Barnyardgrass plant response rating (0 to 10 scale, 0 is no effect, 10 is complete control): under heading Pre-emergence
# Outline: as §2
# [1] = Postemergence, Rate 125 g/ha, scale 0 to 10, 0 is no effect, 10 is complete control
# [2] = Postemergence, Rate 500 g/ha, scale 0 to 10, 0 is no effect, 10 is complete control
# [3] = Preemergence, Rate 62 g/ha, scale of 0 to 10 where 0 is no effect and 10 is complete control
# [4] = Preemergence, Rate 125 g/ha, scale 0 to 10, 0 is no effect, 10 is complete control
# [5] = Preemergence, Rate 250 g/ha, scale 0 to 10, 0 is no effect, 10 is complete control
# [6] = Preemergence, Rate 500 g/ha, scale 0 to 10, 0 is no effect, 10 is complete control
# [7] = Rate 62 g/ha, Postemergence, scale 0 to 10, 0 no effect, 10 complete control
# [8] = Rate 62 g/ha, flood test species, Pre-emergence
# [9] = Rate 125 g/ha, flood test species
# [10] = Rate 250 g/ha, Pre-emergence (flood test species), scale 0 to 10, 0 is no effect, 10 is complete control
# [11] = Rate 500 g/ha, Pre-emergence section of Table B, 0 to 10 scale (0 no effect, 10 complete control)
# [12] = Postemergence, Rate 31 g/ha, visual rating, scale 0 to 10 (0 no effect, 10 complete control)
# [13] = Preemergence, Rate 250 g/ha, scale of 0 to 10 where 0 is no effect and 10 is complete control
# [14] = Rate 125 g/ha, Postemergence, scale of 0 to 10 where 0 is no effect and 10 is complete control
# [15] = Rate 250 g/ha, Postemergence, scale of 0 to 10 where 0 is no effect and 10 is complete control
# [16] = Rate 31 g/ha, Pre-emergence section (flood test species), scale 0 to 10
# [17] = Rate 62 g/ha, headed Pre-emergence (flood test species), scale 0 to 10 (0 no effect, 10 complete control)
# [18] = Rate 125 g/ha, Pre-emergence, flood test species, scale 0 to 10 where 0 is no effect and 10 is complete control
# [19] = Rate 250 g/ha, Pre-emergence, flood-test species, scale 0 to 10, 0 is no effect, 10 is complete control
# [20] = Postemergence, Rate 250 g/ha, scale 0 to 10, 0 is no effect, 10 is complete control
# [21] = Postemergence, Rate 500 g/ha, scale of 0 to 10 where 0 is no effect and 10 is complete control
# [22] = Preemergence, Rate 62 g/ha, scale 0 to 10 (0 no effect, 10 complete control)
# [23] = Preemergence, Rate 125 g/ha, scale of 0 to 10 where 0 is no effect and 10 is complete control
# [24] = Preemergence, Rate 500 g/ha, scale of 0 to 10 where 0 is no effect and 10 is complete control
# [25] = Rate 62 g/ha, Postemergence, scale of 0 to 10 where 0 is no effect and 10 is complete control
# [26] = Rate 500 g/ha, Pre-emergence, flood test species, scale 0 to 10 (0 no effect, 10 complete control)
smiles,measurement,setting,value
CC(C)C(=O)Cn1c(=O)on(C(=O)N(c2ccc(F)cc2F)C(C)C)c1=O [Compound 486],Morningglory plant response rating,morningglory; [1],1
same,"Plant response rating, Morningglory",morningglory; [2],2
same,"Plant response rating, Morningglory",morningglory; [3],0
same,Morningglory plant response rating,morningglory; [4],0
same,Morningglory plant response rating,morningglory; [5],0
same,Morningglory plant response rating,morningglory; [6],0
same,Morningglory plant response rating,morningglory; [7],1
same,Rape plant response rating,rape; [1],0
same,"Plant response rating, Rape",rape; [2],1
same,"Plant response rating, Rape",rape; [3],2
same,Rape plant response rating,rape; [4],2
same,Rape plant response rating,rape; [5],6
same,Rape plant response rating,rape; [6],6
same,Rape plant response rating,rape; [7],0
same,"Plant response rating, S. Flatsedge (0 to 10 scale, 0 is no effect, 10 is complete control)",smallflower flatsedge; [8],0
same,"S. Flatsedge plant response rating (0 to 10 scale, 0 is no effect, 10 is complete control)",smallflower flatsedge; [9],0
same,S. Flatsedge plant response rating,smallflower flatsedge; [10],0
same,S. Flatsedge plant response rating,smallflower flatsedge; [11],0
same,"Plant response rating, Barnyardgrass (0 to 10 scale, 0 is no effect, 10 is complete control)",bamyardgrass; [8],0
same,"Barnyardgrass plant response rating (0 to 10 scale, 0 is no effect, 10 is complete control)",bamyardgrass; [9],0
same,Barnyardgrass plant response rating,bamyardgrass; [10],0
same,Barnyardgrass plant response rating,bamyardgrass; [11],0
COCC(C)N(C(=O)n1oc(=O)n(-c2ccccc2C)c1=O)c1ccc(F)cc1 (stereo not drawn) [Compound 324],Morningglory plant response rating,morningglory; [12],0
same,Morningglory plant response rating,morningglory; [3],0
same,Morningglory plant response rating (0 to 10 scale),"morningglory; Preemergence, Rate 125 g/ha",0
same,Morningglory plant response rating,morningglory; [13],0
same,Morningglory plant response rating,morningglory; [7],0
same,Morningglory plant response rating,morningglory; [14],0
same,"Plant response rating, Morningglory",morningglory; [15],0
same,Rape plant response rating,rape; [12],0
same,Rape plant response rating,rape; [3],0
same,Rape plant response rating (0 to 10 scale),"rape; Preemergence, Rate 125 g/ha",0
same,Rape plant response rating,rape; [13],0
same,Rape plant response rating,rape; [7],0
same,Rape plant response rating,rape; [14],0
same,"Plant response rating, Rape",rape; [15],0
same,S. Flatsedge plant response rating,smallflower flatsedge; [16],0
same,S. Flatsedge plant response rating,smallflower flatsedge; [17],0
same,S. Flatsedge plant response rating,smallflower flatsedge; [18],0
same,S. Flatsedge plant response rating,smallflower flatsedge; [19],0
same,Barnyardgrass plant response rating,bamyardgrass; [16],0
same,Barnyardgrass plant response rating,bamyardgrass; [17],0
same,Barnyardgrass plant response rating,bamyardgrass; [18],0
same,Barnyardgrass plant response rating,bamyardgrass; [19],0
CC(C)N(C(=O)n1oc(=O)n(C(CF)CF)c1=O)c1ccc(F)cc1 [Compound 390],"Plant response rating, Morningglory",morningglory; [20],7
same,Morningglory plant response rating,morningglory; [21],9
same,"Plant response rating, Morningglory",morningglory; [22],0
same,"Plant response rating, Morningglory",morningglory; [23],3
same,Morningglory plant response rating,morningglory; [13],6
same,Morningglory plant response rating,morningglory; [24],7
same,Morningglory plant response rating,morningglory; [25],2
same,"Plant response rating, Rape",rape; [20],10
same,Rape plant response rating,rape; [21],10
same,"Plant response rating, Rape",rape; [22],0
same,"Plant response rating, Rape",rape; [23],2
same,Rape plant response rating,rape; [13],8
same,Rape plant response rating,rape; [24],8
same,Rape plant response rating,rape; [25],7
same,"Plant response rating, S. Flatsedge (0 to 10 scale, 0 is no effect, 10 is complete control)",smallflower flatsedge; [8],0
same,"S. Flatsedge plant response rating (0 to 10 scale, 0 is no effect, 10 is complete control)",smallflower flatsedge; [9],0
same,S. Flatsedge plant response rating,smallflower flatsedge; [19],0
same,S. Flatsedge plant response rating,smallflower flatsedge; [26],7
same,"Plant response rating, Barnyardgrass (0 to 10 scale, 0 is no effect, 10 is complete control)",bamyardgrass; [8],2
same,"Barnyardgrass plant response rating (0 to 10 scale, 0 is no effect, 10 is complete control)",bamyardgrass; [9],5
same,Barnyardgrass plant response rating,bamyardgrass; [19],4
same,Barnyardgrass plant response rating,bamyardgrass; [26],9
